Like-named read-outs stand apart in the source and are kept apart here.
Legend:
[1] = biological target: tubulin (colchicine site); assay: Inhibition of [3H]colchicine binding to tubulin; parameters: species or system bovine; conditions: for IC50: 5 μM [3H]colchicine, 1 μM tubulin; for Percent Colchicine Binding Inhibition (CBI), 5 μM / % CBI 5 μM, (30° C.) / % CBI 5 μM, 37° C.: 5 μM compound; for Percent Colchicine Binding Inhibition (CBI), 50 μM / % CBI 50 μM, (30° C.) / % CBI 50 μM, 37° C.: 50 μM compound; for % CBI 5 μM, (30° C.) / % CBI 50 μM, (30° C.): 30° C. (values in parentheses); for Percent Colchicine Binding Inhibition (CBI), 1 μM: 1 μM compound
Experimental: Assays to determine whether 15mix-17mix inhibited binding of [^3H]colchicine to tubulin at both 30° C. and 37° C. were performed. This was accomplished using methods described previously. Kang, G.-J.; Getahun, Z.; Muzaffar, A.; Brossi, A.; Hamel, E. J. Biol. Chem. 1990, 265, 10255; Verdier-Pinard, P.; Lai, J.-Y.; Yoo, H.-D.; Yu, J.; Marquez, B.; Nagle, D. G.; Nambu, M.; White, J. D.; Falck, J. R.; Gerwick, W. H.; Day, B. W.; Hamel, E. Mol. Pharmacol. 1998, 53, 62. Briefly, 5 μM [^3H]colchicine (2.3 TBq/mmol), drug (1, 5, 10, 50, or 250 μM), or vehicle (DMSO, 5% v/v) were incubated at 30° C. for 15 minutes or at 37° C. for 10 minutes with 1 μM tubulin in the presence of 1 M monosodium glutamate, 0.1 M glucose-1-phosphate, 1 mM MgCl2, 1 mM GTP, and 0.5 mg/mL bovine serum albumin. The solutions were filtered through two stacks of DEAE-cellulose filters and the radioactivity in the filtrate was determined by scintillation spectrometry. Each series of determinations included positive controls of 1, 5, and/or 50 μM curacin A.

[2] = system: isolated bovine brain tubulin; assay: Inhibition of GTP/glutamate-induced tubulin polymerization (turbidimetric, 30° C.); assay type: biochemical; conditions: for IC50: read-out: 50% Tubulin Polymerization Inhibition Concentration (TPI) IC50, 30° C., 10 μM tubulin; for Percent Tubulin Polymerization Inhibition (TPI), 5 μM / % TPI 5 μM: 5 μM compound
[3] = system: MDA-MB231 cells; assay: Growth inhibition of breast carcinoma cells (MTS); assay type: cell-based, human
[4] = system: PC-3 cells; assay: Growth inhibition of prostate carcinoma cells (MTS); assay type: cell-based, human
[5] = system: 2008 cells; assay: Growth inhibition of ovarian carcinoma cells (MTS); assay type: cell-based, human
[6] = system: MCF-7 human breast carcinoma cells; assay: Mitotic index by immunofluorescence of phosphorylated core histone; assay type: cell-based; conditions: for concentration causing maximum mitotic block: 0.0075-15 μM
Experimental: Further verification of the biological activity of compounds 17a-e was obtained in living tumor cells by quantifying their effect on mitotic index, essentially, counting the number of cells in the mitotic phase of the cell cycle. Antimitotic compounds increase the mitotic index, which can be quantified immunohistochemically using an antibody to a mitosis-specific phosphorylated core histone protein. MCF-7 human breast carcinoma cells were treated with increasing concentrations of compounds 17a-e (7.8-1000 nM), curacin A (3.1-400 nM), and vinblastine (0.08-10 nM) for 14-16 hours. The morphology of the cellular nuclei and the mircrotubule cytoskeleton, as well as the phosphorylation of a core histone protein, were visualized using a multiparameter immunofluorescence approach. […] Compound 17b induced cell rounding and the generalized loss of structured microtubules in the same cells. The mitotic index in drug-treated cells was measured. To assess the relative activity of compounds 17a-e and two known microtubule disrupting drugs, vinblastine and curacin A, the minimum effective concentration of each drug was measured.
Phosphorylation of histone H3 occurs during mitosis and is linked to chromosome condensation. Thus, antimitotic agents cause an accumulation of cells containing […]. Wei, Y.; Mizzen, C. A.; Cook, R. G.; Gorovsky, M. A.; Allis, C. D. Proc. Natl Acad. Sci. USA 1998, 95, 7480. MCF-7 human breast carcinoma cells were treated with increasing concentrations (0.0075-15 μM) of 17mix and 17a-e for 14 hours and mitotic index quantities automatically. […] Vinblastine, a classic mitotic inhibitor, was tested over a range of 0.49 nM to 0.1 μM and caused a maximum accumulation of adherent cells in mitosis of 26%.

[7] = incubation at 30° C. for 15 minutes, read-out: 50% Colchicine Binding Inhibitory Concentration (CBI), 30° C.
[8] = incubation at 37° C. for 10 minutes, read-out: 50% Colchicine Binding Inhibitory Concentration (CBI), 37° C.
[9] = Homo sapiens, MDA-MB-231, 48 h, read-out: GI50 MDA-MB231 (48 h)
[10] = Homo sapiens, PC-3, 48 h, read-out: GI50 PC-3 (48 h)
[11] = Homo sapiens, Ovarian carcinoma cell, 48 h, read-out: GI50 2008 (48 h)
[12] = 96 h, Table II prints no unit, read-out: GI50 MDA 96 h
[13] = read-out: GI50 MDA 48 h, 48 h, Table II prints no unit
[14] = 96 h, Table II prints no unit, read-out: GI50 PC3 96 h
[15] = read-out: GI50 PC3 48 h, 48 h, Table II prints no unit
[16] = 96 h, Table II prints no unit, read-out: GI50 2008 96 h
[17] = read-out: GI50 2008 48 h, 48 h, Table II prints no unit
[18] = 96 h, read-out: GI50 MDA-MB231 (breast) 96 h
[19] = read-out: GI50 MDA-MB231 (breast) 48 h, 48 h
[20] = 96 h, read-out: GI50 PC3 (prostate) 96 h
[21] = read-out: GI50 PC3 (prostate) 48 h, 48 h
[22] = 96 h, read-out: GI50 2008 (ovarian) 96 h
[23] = read-out: GI50 2008 (ovarian) 48 h, 48 h

Row | SMILES | IC50 [1, 7] | IC50 [1, 8] | IC50 [2] | GI50 [3, 9] | GI50 [4, 10] | GI50 [5, 11] | Percent Colchicine Binding Inhibition (CBI), 5 μM [1] | Percent Colchicine Binding Inhibition (CBI), 50 μM [1] | GI50 [3, 12] | GI50 [3, 13] | GI50 [4, 14] | GI50 [4, 15] | GI50 [5, 16] | GI50 [5, 17] | Percent Tubulin Polymerization Inhibition (TPI), 5 μM [2] | also measured
1 | COc1cc(/C=C\CC/C=C/C=C(\C)CCC(O)c2cc3ccccc3o2)cc(OC)c1OC (centres unmarked) [Compound 19CR3] | – | – | – | – | – | – | 9.9 ± 3.0% | 59.0 ± 7.5 % | 0.214 ± 0.051 µM | 0.151 ± 0.051 µM | 1.02 ± 0.38 µM | 0.366 ± 0.157 µM | 0.279 ± 0.03 µM | 0.311 ± 0.063 µM | >100% | –
2 | C=CCC(CCC(C)=CC=CCCC=CC1COC(C=Cc2ccccc2)=N1)OC (centres unmarked) [JRC5] | – | – | – | – | – | – | – | – | – | – | – | – | – | – | – | % CBI 5 μM, (30° C.) [1]: (9 ± 6) %; % CBI 5 μM, 37° C. [1]: 1 ± 12%; % CBI 50 μM, (30° C.) [1]: (−220 ± 16) %; % CBI 50 μM, 37° C. [1]: −89 ± 7%; % TPI 5 μM [2]: 29%; GI50 [3, 18]: 5.8 ± 3.6 µM; GI50 [3, 19]: 14 ± 3 µM; GI50 [4, 20]: 28 ± 1 µM; GI50 [4, 21]: 30 ± 6 µM; GI50 [5, 22]: 23 ± 2 µM; GI50 [5, 23]: 17 ± 3 µM
3 | C=CC[C@@H](CC/C(C)=C/C=C/CC/C=C\[C@@H]1COC(C(C)(C)C)=N1)OC [JRC1] | – | – | – | – | – | – | – | – | – | – | – | – | – | – | – | % CBI 5 μM, (30° C.) [1]: (14 ± 5) %; % CBI 5 μM, 37° C. [1]: 0 ± 7%; % CBI 50 μM, (30° C.) [1]: (80 ± 1) %; % CBI 50 μM, 37° C. [1]: 87 ± 1%; % TPI 5 μM [2]: 0%; GI50 [3, 18]: 4.1 ± 1.1 µM; GI50 [3, 19]: 1.8 ± 0.3 µM; GI50 [4, 20]: 8.8 ± 0.8 µM; GI50 [4, 21]: 6.2 ± 1.3 µM; GI50 [5, 22]: 3.7 ± 1.5 µM; GI50 [5, 23]: 0.45 ± 0.5 µM
4 | COc1ccc(/C=C\CC/C=C/C=C(\C)CCC(O)c2cc3ccccc3o2)c(OC)c1 (centres unmarked) [Compound 19AR3] | – | – | – | – | – | – | −50.0 ± 12.7 % | −29.0 ± 9.2 % | 6.43 ± 7.42 µM | 42.1 ± 1.4 µM | 49.1 ± 8.9 µM | > 50 µM | 17.7 ± 2.7 µM | 12.2 ± 2.7 µM | 60.4% | Percent Colchicine Binding Inhibition (CBI), 1 μM [1]: 0.7 ± 16.2%
5 | COc1ccc(/C=C\CC/C=C/C=C(\C)CCC(O)c2ccco2)c(OC)c1 (centres unmarked) [Compound 19AR1] | – | – | – | – | – | – | −2.2 ± 8.2% | 13.2 ± 12.7% | 3.26 ± 6.13 µM | 26.8 ± 0.9 µM | > 50 µM | > 50 µM | 19.1 ± 3.1 µM | 20.2 ± 2 µM | 81.7% | Percent Colchicine Binding Inhibition (CBI), 1 μM [1]: −4.6 ± 8.5%
6 | COc1ccc(/C=C\CC/C=C/C=C(\C)CCC(O)c2ccccc2OC)c(OC)c1 (centres unmarked) [Compound 19AR5] | – | – | – | – | – | – | −17.4 ± 7.9 % | −26.1 ± 11.5 % | 15.3 ± 9.8 µM | > 50 µM | > 50 µM | > 50 µM | 24.2 ± 3.9 µM | 30.8 ± 8.7 µM | 34.2% | Percent Colchicine Binding Inhibition (CBI), 1 μM [1]: −3.4 ± 3.2%
7 | CC[C@]1(O)C[C@@H]2CN(CCc3c([nH]c4ccccc34)[C@@](C(=O)OC)(c3cc4c(cc3OC)N(C)[C@H]3[C@@](O)(C(=O)OC)[C@H](OC(C)=O)[C@]5(CC)C=CCN6CC[C@]43[C@@H]65)C2)C1 [Vinblastine, vinblastine, reference compound] | – | – | – | – | – | – | – | – | – | – | – | – | – | – | – | maximum accumulation of adherent cells in mitosis ([6]; tested over 0.49 nM to 0.1 μM, 14 hours): 26%
8 | COc1cc(/C=C\CC/C=C/C=C(\C)CCC(O)c2cc3ccccc3s2)cc(OC)c1OC (centres unmarked) [Compound 19CR4] | – | – | – | – | – | – | 5.0 ± 7.4% | 73.0 ± 2.4 % | 0.221 ± 0.033 µM | 0.243 ± 0.046 µM | 0.634 ± 0.397 µM | 0.933 ± 1.25 µM | 0.268 ± 0.046 µM | 0.314 ± 0.025 µM | >100% | –
9 | COc1cc(/C=C\CC/C=C/C=C(\C)CCC(O)c2ccco2)cc(OC)c1OC (centres unmarked) [Compound 19CR1] | – | – | – | – | – | – | 30.3 ± 7.5 % | 59.7 ± 1.6 % | 0.79 ± 0.167 µM | 0.288 ± 0.166 µM | 7.73 ± 1.22 µM | 7.99 ± 3.52 µM | 2.53 ± 0.64 µM | 2.72 ± 0.96 µM | 94.4% | –

Now from value to compound, other results behind:

Row | IC50 [1, 7] | IC50 [1, 8] | IC50 [2] | GI50 [3, 9] | GI50 [4, 10] | GI50 [5, 11] | Percent Colchicine Binding Inhibition (CBI), 5 μM [1] | Percent Colchicine Binding Inhibition (CBI), 50 μM [1] | GI50 [3, 12] | GI50 [3, 13] | GI50 [4, 14] | GI50 [4, 15] | GI50 [5, 16] | GI50 [5, 17] | SMILES | Percent Tubulin Polymerization Inhibition (TPI), 5 μM [2] | also measured
10 | 39 ± 10 µM | 9 ± 3 µM | 1.2 µM | 0.28 ± 0.04 µM | 0.38 ± 0.08 µM | 0.28 ± 0.02 µM | – | – | – | – | – | – | – | – | COc1cc(/C=C\CC/C=C/C=C(\C)CCC(O)c2cccs2)cc(OC)c1OC (centres unmarked) [Compound 17c, (4E,6E,10Z)-11-(3,4,5-Trimethoxyphenyl)-4-methyl-1-thiophen-2-ylundeca-4,6,10-trien-1-ol] | – | concentration causing maximum mitotic block ([6]; 14 hours): sub-micromolar
11 | 9 ± 4 µM | 28 ± 8 µM | 1.6 µM | 0.12 ± 0.07 µM | 0.31 ± 0.2 µM | 0.27 ± 0.05 µM | – | – | – | – | – | – | – | – | COc1cc(/C=C\CC/C=C/C=C(\C)CCC(O)c2cc3ccccc3o2)cc(OC)c1OC (centres unmarked) [Compound 17e, (4E,6E,10Z)-11-(3,4,5-Trimethoxyphenyl)-4-methyl-1-benzofuran-2-ylundeca-4,6,10-trien-1-ol] | – | concentration causing maximum mitotic block ([6]; 14 hours): sub-micromolar
12 | 32 ± 4 µM | 9 ± 6 µM | 0.9 µM | 0.69 ± 0.1 µM | 8 ± 4 µM | 2.7 ± 1 µM | – | – | – | – | – | – | – | – | COc1cc(C=CCCC=CC=C(C)CCC(O)c2ccco2)cc(OC)c1OC (centres unmarked) [Compound 17a, (4E,1E,10Z)-11-(3,4,5-Trimethoxyphenyl)-4-methyl-1-furan-2-ylundeca-4,6,10-trien-1-ol] | – | –
13 | 9 ± 7 µM | 19 ± 2 µM | 1.4 µM | 0.23 ± 0.06 µM | 0.62 ± 0.05 µM | 0.36 ± 0.001 µM | – | – | – | – | – | – | – | – | COc1cc(/C=C\CC/C=C/C=C(\C)CCC(O)c2cc3ccccc3s2)cc(OC)c1OC (centres unmarked) [Compound 17b, (4E,6E,10Z)-11-(3,4,5-Trimethoxyphenyl)-4-methyl-1-benzothiophen-2ylundeca-4,6,10-trien-1ol] | – | fraction of cells exhibiting condensed chromatin and increased core histone phosphorylation ([6]; 14-16 hours): large increase

Source: patent publication US6392055B1, “Synthesis and biological evaluation of analogs of the antimitotic marine natural product curacin A” (The University of Pittsburgh, priority 2000, dated 2002)
